Earlier results as cited in patent US20140284468A1, “Cancer patient selection for administration of therapeutic agents using mass spectral analysis of blood-based samples” (Biodesix, Inc., priority 2010, published 2014).

Test system: NSCLC, SCCHN, and CRC patients
Details: VeriStrat poor subgroup, monotherapy versus placebo

C#Cc1cccc(Nc2ncnc3cc(OCCOC)c(OCCOC)cc23)c1 [erlotinib]
treatment benefit: essentially equivalent to treatment with placebo
